Experiments:
human CD73 = molecular target: T1, human CD73 (Homo sapiens, UniProt P21589); experiment: Inhibitor activity against CD73 in cell based assay (CD73 expressing CHO-K1 cells); conditions: CHO-K1 cells expressing human CD73, 150 μM AMP, 4 hours of incubation; read-out: CHO-K1 CELL_VARIANT: CD73 IC50
T1 construct: expressed in transfected cells
T1 sequence (P21589 27-549): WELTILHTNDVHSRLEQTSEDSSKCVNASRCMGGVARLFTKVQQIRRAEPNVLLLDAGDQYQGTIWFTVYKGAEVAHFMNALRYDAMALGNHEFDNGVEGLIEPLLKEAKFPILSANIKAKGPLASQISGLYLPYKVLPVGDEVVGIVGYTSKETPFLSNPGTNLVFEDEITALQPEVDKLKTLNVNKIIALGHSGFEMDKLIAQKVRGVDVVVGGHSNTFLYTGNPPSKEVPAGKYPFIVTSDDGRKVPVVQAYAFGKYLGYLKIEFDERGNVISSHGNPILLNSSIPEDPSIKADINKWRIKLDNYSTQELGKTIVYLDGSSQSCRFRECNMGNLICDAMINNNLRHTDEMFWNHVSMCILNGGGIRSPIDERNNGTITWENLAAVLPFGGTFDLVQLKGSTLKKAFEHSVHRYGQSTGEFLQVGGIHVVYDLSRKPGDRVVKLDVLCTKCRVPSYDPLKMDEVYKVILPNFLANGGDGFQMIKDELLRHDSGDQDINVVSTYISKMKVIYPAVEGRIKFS
Procedure, shortened: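 Stable human CD73 CHO-K1 cells, 1×10^4/well, exposed to an 8-point 1:3 compound series (top 10 μM, 0.2% DMSO) plus 150 μM AMP for 4 h. Remaining AMP in the supernatant was read by CellTiter-Glo 2.0 luminescence with 1 μM ATP after 30 min at room temperature. IC50 came from nonlinear regression of % inhibition against cell and media-only controls.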

[1] = molecular target: T2, Human CD73 (amino acid residues 27-549) (Homo sapiens, UniProt P21589); experiment: CD73 enzymatic assay (luciferase-based indirect assay, CellTiter-Glo); format: biochemical; conditions: 0.4 nM CD73, 150 μM AMP, 1 hour at room temperature
T2 construct: Human CD73 (amino acid residues 27-549); His tag (N); made in house; host or cells: E. coli
T2 sequence (P21589 27-549): T1 sequence (P21589 27-549)
Procedure, shortened: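 N-His human CD73 (27-549) expressed in E. coli, 0.4 nM, incubated with 150 μM AMP and compound in 50 mM HEPES pH 7.4, 0.01% Tween-20, 1 h at RT. Remaining AMP read via CellTiter-Glo luminescence with 1 μM ATP after 30 min; IC50 from nonlinear regression of % inhibition.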

Structure (SMILES)	IC50 (human CD73) [µM]	IC50 [1] [µM]
Cc1nn(CCC(F)(F)F)c(C)c1-c1cc(F)nc(O[C@@H]2CCN(c3cn[nH]c(=O)c3Cl)C2)c1 [P-0166, (R)-4-chloro-5-(3-((4-(3,5-dimethyl-1-(3,3,3-trifluoropropyl)-1H-pyrazol-4-yl)-6-fluoropyridin-2-yl)oxy)pyrrolidin-1-yl)pyridazin-3(2H)-one]	0.001 to 10	0.001 to 10
Cc1nn(CC(F)(F)F)c(C)c1-c1cc(F)nc(O[C@@H]2CCN(c3cn[nH]c(=O)c3Cl)C2)c1 [P-0167, (R)-4-chloro-5-(3-((4-(3,5-dimethyl-1-(2,2,2-trifluoroethyl)-1H-pyrazol-4-yl)-6-fluoropyridin-2-yl)oxy)pyrrolidin-1-yl)pyridazin-3(2H)-one]	0.001 to 10	0.001 to 10
Cc1nn(C)c(C)c1-c1cncc(O[C@@H]2CCN(c3cn[nH]c(=O)c3Cl)C2)c1 [P-0168, (R)-4-chloro-5-(3-((5-(1,3,5-trimethyl-1H-pyrazol-4-yl)pyridin-3-yl)oxy)pyrrolidin-1-yl)pyridazin-3(2H)-one]	0.001 to 10	0.001 to 10
Cc1nn(CC(F)F)c(C)c1-c1cc(F)nc(O[C@@H]2CCN(c3cn[nH]c(=O)c3Cl)C2)c1 [P-0169, (R)-4-chloro-5-(3-((4-(1-(2,2-difluoroethyl)-3,5-dimethyl-1H-pyrazol-4-yl)-6-fluoropyridin-2-yl)oxy)pyrrolidin-1-yl)pyridazin-3(2H)-one]	0.001 to 10	0.001 to 10
Cc1nn(C(F)F)c(C)c1-c1ccnc(O[C@@H]2CCN(c3cn[nH]c(=O)c3Cl)C2)c1 [P-0170, (R)-4-chloro-5-(3-((4-(1-(difluoromethyl)-3,5-dimethyl-1H-pyrazol-4-yl)pyridin-2-yl)oxy)pyrrolidin-1-yl)pyridazin-3(2H)-one]	0.001 to 10	0.001 to 10
Cc1nn(C)c(C)c1-c1cc(O[C@@H]2CCN(c3cn[nH]c(=O)c3Cl)C2)ncc1F [P-0171, (R)-4-chloro-5-(3-((5-fluoro-4-(1,3,5-trimethyl-1H-pyrazol-4-yl)pyridin-2-yl)oxy)pyrrolidin-1-yl)pyridazin-3(2H)-one]	0.001 to 10	0.001 to 10
Cc1nnn(C)c1-c1cc(F)nc(O[C@@H]2CCN(c3cn[nH]c(=O)c3Cl)C2)c1 [P-0172, (R)-4-chloro-5-(3-((4-(1,4-dimethyl-1H-1,2,3-triazol-5-yl)-6-fluoropyridin-2-yl)oxy)pyrrolidin-1-yl)pyridazin-3(2H)-one]	0.001 to 10	0.001 to 10
Cn1cncc1-c1cc(F)nc(O[C@@H]2CCN(c3cn[nH]c(=O)c3Cl)C2)c1 [P-0173, (R)-4-chloro-5-(3-((6-fluoro-4-(1-methyl-1H-imidazol-5-yl)pyridin-2-yl)oxy)pyrrolidin-1-yl)pyridazin-3(2H)-one]	0.001 to 10	0.001 to 10
Cc1nc(C)c(-c2cc(F)nc(O[C@@H]3CCN(c4cn[nH]c(=O)c4Cl)C3)c2)s1 [P-0174, (R)-4-chloro-5-(3-((4-(2,4-dimethylthiazol-5-yl)-6-fluoropyridin-2-yl)oxy)pyrrolidin-1-yl)pyridazin-3(2H)-one]	0.001 to 10	0.001 to 10
Cc1cnn(C)c1-c1cc(F)nc(O[C@@H]2CCN(c3cn[nH]c(=O)c3Cl)C2)c1 [P-0175, (R)-4-chloro-5-(3-((4-(1,4-dimethyl-1H-pyrazol-5-yl)-6-fluoropyridin-2-yl)oxy)pyrrolidin-1-yl)pyridazin-3(2H)-one]	0.001 to 10	0.001 to 10
Cc1noc(C)c1-c1ccnc(O[C@@H]2CCN(c3cnn(CCO)c(=O)c3Cl)C2)c1 [P-0176, (R)-4-chloro-5-(3-((4-(3,5-dimethylisoxazol-4-yl)pyridin-2-yl)oxy)pyrrolidin-1-yl)-2-(2-hydroxyethyl)pyridazin-3(2H)-one]	0.001 to 10	0.001 to 10
Cc1noc(C)c1-c1ccnc(O[C@H]2CN(c3cnn(CCO)c(=O)c3Cl)C[C@@H]2F)c1 [P-0177, 4-chloro-5-((3S,4S)-3-((4-(3,5-dimethylisoxazol-4-yl)pyridin-2-yl)oxy)-4-fluoropyrrolidin-1-yl)-2-(2-hydroxyethyl)pyridazin-3(2H)-one]	0.001 to 10	0.001 to 10
Cc1noc(C)c1-c1cc(O[C@@H]2CCN(c3cnn(CCO)c(=O)c3Cl)C2)ncn1 [P-0178, (R)-4-chloro-5-(3-((6-(3,5-dimethylisoxazol-4-yl)pyrimidin-4-yl)oxy)pyrrolidin-1-yl)-2-(2-hydroxyethyl)pyridazin-3(2H)-one]	0.001 to 10	0.001 to 10

The remaining lines, values ahead:

IC50 (human CD73) [µM]	IC50 [1] [µM]	Structure (SMILES)
0.001 to 10	0.001 to 10	Cc1noc(C)c1-c1ccnc(O[C@H]2CN(c3cn[nH]c(=O)c3Cl)C[C@@H]2F)c1 [P-0180, 4-chloro-5-((3S,4S)-3-((4-(3,5-dimethylisoxazol-4-yl)pyridin-2-yl)oxy)-4-fluoropyrrolidin-1-yl)pyridazin-3(2H)-one]
0.001 to 10	0.001 to 10	Cc1nn(C)c(C)c1-c1cc(O[C@@H]2CCN(c3cn[nH]c(=O)c3Cl)C2)ncn1 [P-0181, (R)-4-chloro-5-(3-((6-(1,3,5-trimethyl-1H-pyrazol-4-yl)pyrimidin-4-yl)oxy)pyrrolidm-1-yl)pyridazin-3(2H)-one]
0.001 to 10	0.001 to 10	Cc1noc(C)c1-c1cc(O[C@@H]2CCN(c3cn[nH]c(=O)c3Cl)C2)ncn1 [P-0182, (R)-4-chloro-5-(3-((6-(3,5-dimethylisoxazol-4-yl)pyrimidin-4-yl)oxy)pyrrolidin-1-yl)pyridazin-3(2H)-one]
0.001 to 10	0.001 to 10	Cc1nn(CC2CCC2)c(C)c1-c1cc(F)nc(O[C@@H]2CCN(c3cn[nH]c(=O)c3Cl)C2)c1 [P-0183, (R)-4-chloro-5-(3-((4-(1-(cyclobutylmethyl)-3,5-dimethyl-1H-pyrazol-4-yl)-6-fluoropyridin-2-yl)oxy)pyrrolidin-1-yl)pyridazin-3(2H)-one]
0.001 to 10	0.001 to 10	Cc1nn(CC2(C)COC2)c(C)c1-c1cc(F)nc(O[C@@H]2CCN(c3cn[nH]c(=O)c3Cl)C2)c1 [P-0184, (R)-4-chloro-5-(3-((4-(3,5-dimethyl-1-((3-methyloxetan-3-yl)methyl)-1H-pyrazol-4-yl)-6-fluoropyridin-2-yl)oxy)pyrrolidin-1-yl)pyridazin-3(2H)-one]
0.001 to 10	0.001 to 10	Cc1nn(CC(C)(CO)CCl)c(C)c1-c1cc(F)nc(O[C@@H]2CCN(c3cn[nH]c(=O)c3Cl)C2)c1 (stereo partly drawn) [P-0185, 4-chloro-5-((3R)-3-((4-(1-(3-chloro-2-(hydroxymethyl)-2-methylpropyl)-3,5-dimethyl-1H-pyrazol-4-yl)-6-fluoropyridin-2-yl)oxy)pyrrolidin-1-yl)pyridazin-3(2H)-one]
0.001 to 10	0.001 to 10	Cc1nn(CC(C)(C)O)c(C)c1-c1cc(F)nc(O[C@@H]2CCN(c3cn[nH]c(=O)c3Cl)C2)c1 [P-0186, (R)-4-chloro-5-(3-((6-fluoro-4-(1-(2-hydroxy-2-methylpropyl)-3,5-dimethyl-1H-pyrazol-4-yl)pyridin-2-yl)oxy)pyrrolidin-1-yl)pyridazin-3(2H)-one]
0.001 to 10	0.001 to 10	Cc1nn(CC2CC(F)(F)C2)c(C)c1-c1cc(F)nc(O[C@@H]2CCN(c3cn[nH]c(=O)c3Cl)C2)c1 [P-0187, (R)-4-chloro-5-(3-((4-(1-((3,3-difluorocyclobutyl)methyl)-3,5-dimethyl-1H-pyrazol-4-yl)-6-fluoropyridin-2-yl)oxy)pyrrolidin-1-yl)pyridazin-3(2H)-one]
0.001 to 10	0.001 to 10	Cc1noc(C)c1-c1cc(F)nc(O[C@H]2CN(c3cnn(CCO)c(=O)c3Cl)C[C@@H]2F)c1 [P-0188, 4-chloro-5-((3S,4S)-3-((4-(3,5-dimethylisoxazol-4-yl)-6-fluoropyridin-2-yl)oxy)-4-fluoropyrrolidin-1-yl)-2-(2-hydroxyethyl)pyridazin-3(2H)-one]
0.001 to 10	0.001 to 10	Cc1noc(C)c1-c1cc(F)nc(O[C@H]2CN(c3cn[nH]c(=O)c3Cl)C[C@@H]2F)c1 [P-0189, 4-chloro-5-((3S,4S)-3-((4-(3,5-dimethylisoxazol-4-yl)-6-fluoropyridin-2-yl)oxy)-4-fluoropyrrolidin-1-yl)pyridazin-3(2H)-one]
0.001 to 10	0.001 to 10	Cc1nn(C)c(C)c1-c1cc(F)nc(O[C@H]2CN(c3cnn(CCO)c(=O)c3Cl)C[C@@H]2F)c1 [P-0190, 4-chloro-5-((3S,4S)-3-fluoro-4-((6-fluoro-4-(1,3,5-trimethyl-1H-pyrazol-4-yl)pyridin-2-yl)oxy)pyrrolidin-1-yl)-2-(2-hydroxyethyl)pyridazin-3(2H)-one]

From US12202818B2, “Compounds and methods for CD73 modulation and indications therefor” (Opna Bio SA, priority 2020, dated 2025)
